Data: patent US6130229A, “Tricyclic compounds having activity as RAS-FPT inhibitors” (Schering Corporation, priority 1997, dated 2000)
pIC50: −log10 of the molar value.

molecular target: farnesyl protein transferase; assay: Inhibition of farnesyl protein transferase (test of WO 95/10514); format: biochemical; conditions: percent inhibition relative to DMSO vehicle control, IC50 estimated
Description: The compounds of the invention can be tested by standard methods, for example by those published in published PCT application WO 95/10514 published Apr. 20, 1995 (starting at page 61), the disclosure of which is hereby incorporated herein by reference. Particularly relevant assays and studies include In vitro enzyme assays, Cell-Based Assays, Cell Mat Assays, and In Vivo Anti-Tumor Studies.
Such Assays and Studies indicate that compounds of the Formula I above are selective inhibitors of Ras-FPT and can be used as anti-tumor agents. The following Table presents IC50 values obtained in the test for Inhibition of farnesyl protein transferase, reported in published PCT application WO 95/10514. Percent inhibition was calculated relative to the DMSO vehicle control, and an IC50 value was estimated.

Compound | pIC50
O=C(Cc1cc[n+]([O-])cc1)N1CCC(=C2c3ccc(Cl)cc3OCc3cccnc32)CC1 [Example 7B, 4-(8-Chloro-5,11-dihydro[1]benzoxepino[4,3-b]pyridin-11-ylidene)-1-(4-pyridine-acetyl)piperidine N1-oxide] | 5.82
O=C(CC1CCNCC1)N1CCC(=C2c3ccc(Cl)cc3S(=O)(=O)Cc3cccnc32)CC1 [Example 28, 4-(8-Chloro-5,11-dihydro-[1]benzothiepino[4,3-b]pyridin-11-ylidene)-1-(4-piperidine-acetyl)piperidine-6,6-dioxide] | < 5.92
O=C(Cc1ccncc1)N1CCN(C2c3ccc(Cl)cc3SCc3cccnc32)CC1 (stereo not shown) [Example 8, 4-(8-Chloro-5,11-dihydro-[1]benzothiepino[4,3-b]pyridin-11-yl)-1-(4-pyridinyl-acetyl)piperazine] | 6.49
O=C(Cc1ccncc1)N1CCN(C2c3ccc(Cl)cc3[S+]([O-])Cc3cccnc32)CC1 (stereo not shown) [Example 31, 4-(8-Chloro-5,11-dihydro-[1]benzothiepino[4,3-b]pyridin-11-yl)-1-(4-pyridine-acetyl)piperazine-6-oxide] | 5.30
4-(8-Chloro-5,11-dihydro-[1]benzothiepinof4,3-b]pyridin-11-yl)-1-(4-pyridine-acetyl)piperazine N1,6,6-trioxide [Example 17B] | < 5.92
O=C(Cc1ccncc1)N1CCC(=C2c3ccc(Cl)cc3S(=O)(=O)Cc3cccnc32)CC1 [Example 16B, 4-(8-Chloro-5,11-dihydro-[1]benzothiepino[4,3-b]pyridin-11-ylidene)-1-(4-pyridine-acetyl)piperidine 6,6-dioxide] | 6.25
N#CC=C(c1ccc(F)cc1)N1CCC(=C2c3ccc(Cl)cc3SCc3cccnc32)CC1 [Example 33, 3-[4-(8-Chloro-5,11-dihydro-[1]benzothiepino[4,3-b]pyridin-11-ylidene)-piperidin-1-yl]-3-(4'-fluorophenyl)-2-propene-nitrile] | < 6.38
N#CN=C(NCc1ccc2c(c1)OCO2)N1CCC(=C2c3ccc(Cl)cc3SCc3cccnc32)CC1 [Example 20B] | < 6.95

Next, values leading:

pIC50 | Compound
6.23 | O=C(CC1CCNCC1)N1CCC(=C2c3ccc(Cl)cc3SCc3cccnc32)CC1 [Example 12B, 4-(8-Chloro-5,11-dihydro-[1]benzothiepino[4,3-b]pyridin-11-ylidene)-1-(4-pipeeridine-acetyl)piperidine]
6.52 | CSC(=NC#N)N1CCN(C2c3ccc(Cl)cc3SCc3cccnc32)CC1 (stereo not shown) [Example 18, Methyl 4-(8-chloro-5,11-dihydro-[1]benzothiepino[4,3-b]pyridin-11-yl)-N-cyano-1-piperazinecarboximidothioate]
< 6.85 | CSC(=NC#N)N1CCC(=C2c3ccc(Cl)cc3OCc3cccnc32)CC1 [Example 2]
6.85 | N#CN=C(NCc1ccc[n+]([O-])c1)N1CCN(C2c3ccc(Cl)cc3SCc3cccnc32)CC1 (stereo not shown) [Example 21, 4-(8-Chloro-5,11-dihydro[1]benzothiepino[4,3-b]pyridin-11-yl)-N-cyano-N'-(3-pyridinylmethyl)-1-piperazine-carboximidamide N1-oxide]
< 6.42 | NC(=O)N1CCC(CC(=O)N2CCN(C3c4ccc(Cl)cc4[S+]([O-])Cc4cccnc43)CC2)CC1 (stereo not shown) [Example 32, 4-[2-[4-(8-Chloro-5,11-dihydro-[1]benzothiepino[4,3-b]pyridin-11-yl)-1-piperazinyl]-2-oxoethyl]-1-piperidinecarboxamide 6-oxide]
